The results in this text go back to US7855205B2, “Pyrimidinyl substituted fused-pyrrolyl compounds useful in treating kinase disorders” (Janssen Pharmaceutica NV, priority 2004, dated 2010).

The subject of one assay is A375 malignant melanoma. Kind of assay: Inhibition of cell proliferation (14C-thymidine incorporation), A375. The class given is cell-based, human. The note with it: Homo sapiens, A-375. In outline: (§1)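 Cells (3000-8000/well) grown 24 h at 37° C, 5% CO2, then given compound in DMSO for 24 h before adding methyl 14C-thymidine (0.2 uCi/well) for a further 24 h with drug. After PBS washes, incorporation into DNA counted by scintillation.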

Another assay addresses T1, HER2 (Homo sapiens, UniProt P04626).
T1 construct: polyhistidine (N)
In words: HER2 kinase Screening Assay. The class given is biochemical. The note with it: 33P-γ-ATP incorporation, 10 μM ATP.

The subject of assay [1] is HeLa cervical adenocarcinoma. In words: Inhibition of cell proliferation (14C-thymidine incorporation), HeLa.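 Also: HeLa cells in 96-well scintillating plates, compound for 24 h then 24 h more with 14C-thymidine, counting label built into new DNA against DMSO-only control wells.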 The class given is cell-based. The note with it: Homo sapiens. In general terms: Incorporation of labelled thymidine or its analogues reports DNA synthesis.
The next assay has as its system HCT-116 colon carcinoma. Kind of assay: Inhibition of cell proliferation (14C-thymidine incorporation), HCT-116. The note with it: Homo sapiens, HCT-116, HCT116. The assay is classed as cell-based. An outline of the steps: as §1
The target in the next assay is T2, CDK1:Cyclin-B (Homo sapiens, UniProt P06493).
T2 construct: purchased New England Biolabs, Beverly, Mass; 6020; host or cells: insect cells
T2 sequence (P06493 whole entry): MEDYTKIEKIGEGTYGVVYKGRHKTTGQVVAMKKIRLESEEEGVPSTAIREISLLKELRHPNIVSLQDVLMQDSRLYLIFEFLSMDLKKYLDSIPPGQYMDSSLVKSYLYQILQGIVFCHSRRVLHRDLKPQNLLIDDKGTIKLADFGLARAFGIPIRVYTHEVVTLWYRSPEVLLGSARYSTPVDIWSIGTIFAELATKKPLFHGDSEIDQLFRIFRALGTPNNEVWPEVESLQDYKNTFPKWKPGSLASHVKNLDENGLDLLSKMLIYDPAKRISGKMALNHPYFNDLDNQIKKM
T2 sequence (P14635 whole entry partner): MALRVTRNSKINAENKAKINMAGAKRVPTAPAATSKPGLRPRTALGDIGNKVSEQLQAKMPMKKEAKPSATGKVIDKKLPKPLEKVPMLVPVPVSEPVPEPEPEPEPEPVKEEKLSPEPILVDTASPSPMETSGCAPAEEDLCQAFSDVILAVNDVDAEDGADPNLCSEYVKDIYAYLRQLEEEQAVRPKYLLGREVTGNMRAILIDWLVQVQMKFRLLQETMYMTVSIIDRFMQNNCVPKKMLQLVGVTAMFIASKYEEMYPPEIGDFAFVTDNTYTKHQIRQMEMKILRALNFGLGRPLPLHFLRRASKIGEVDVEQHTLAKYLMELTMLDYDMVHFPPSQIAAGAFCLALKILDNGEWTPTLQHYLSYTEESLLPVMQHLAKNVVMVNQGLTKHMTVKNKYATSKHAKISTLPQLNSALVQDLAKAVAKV
Kind of assay: CDK1 Screening Assay. The class given is biochemical. The note with it: 33P-γ-ATP incorporation, 10 μM ATP. In outline: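 Human CDK1/cyclin B co-expressed in insect cells (30 ng/well) in 50 mM Tris pH 8, 10 mM MgCl2, with 10 μM ATP, 33P-γ-ATP and 0.025 μM biotinylated histone H1 peptide (reaction-mix levels); 1% DMSO final. 1 h at 30° C. 33P incorporation into streptavidin-captured peptide by scintillation counting.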

The target of another assay is T3, VEGF-R2 (Rattus norvegicus, UniProt O08775).
T3 construct: polyhistidine (N)
T3 sequence (O08775 786-1343): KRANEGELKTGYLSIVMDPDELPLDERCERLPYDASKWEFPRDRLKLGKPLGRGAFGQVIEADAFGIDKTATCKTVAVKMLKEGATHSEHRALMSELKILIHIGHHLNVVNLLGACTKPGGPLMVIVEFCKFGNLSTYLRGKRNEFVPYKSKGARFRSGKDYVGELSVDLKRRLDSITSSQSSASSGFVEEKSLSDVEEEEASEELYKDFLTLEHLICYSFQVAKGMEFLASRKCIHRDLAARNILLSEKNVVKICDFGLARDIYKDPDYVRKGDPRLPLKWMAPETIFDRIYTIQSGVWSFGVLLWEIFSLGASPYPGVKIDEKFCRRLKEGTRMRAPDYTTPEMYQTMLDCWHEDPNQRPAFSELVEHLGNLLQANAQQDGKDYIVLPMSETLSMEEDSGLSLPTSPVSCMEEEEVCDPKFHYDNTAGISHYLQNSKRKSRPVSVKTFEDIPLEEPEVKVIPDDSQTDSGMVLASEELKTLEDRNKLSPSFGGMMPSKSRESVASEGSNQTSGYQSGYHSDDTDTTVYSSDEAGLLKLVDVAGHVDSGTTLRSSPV
In words: VEGF-R2 Screening Assay. The note with it: 33P-γ-ATP incorporation, 10 μM ATP. The assay is classed as biochemical. An outline of the steps:
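The N-terminally His-tagged rat VEGF-R2 kinase domain (aa 786-1343), diluted in 50 mM Tris-HCl pH 8.0 with 0.1% BSA, phosphorylated a biotinylated histone-H1 peptide with 33P-γ-ATP on Flashplates for 1 h at 30 °C in 1% DMSO. After washes with EDTA/PBS, immobilized 33P was counted by scintillation.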

The target in another assay is T4, Aurora-A (Mus musculus, UniProt P97477).
T4 construct: made in house; host or cells: sf9 insect cells
T4 sequence (P97477 1-395): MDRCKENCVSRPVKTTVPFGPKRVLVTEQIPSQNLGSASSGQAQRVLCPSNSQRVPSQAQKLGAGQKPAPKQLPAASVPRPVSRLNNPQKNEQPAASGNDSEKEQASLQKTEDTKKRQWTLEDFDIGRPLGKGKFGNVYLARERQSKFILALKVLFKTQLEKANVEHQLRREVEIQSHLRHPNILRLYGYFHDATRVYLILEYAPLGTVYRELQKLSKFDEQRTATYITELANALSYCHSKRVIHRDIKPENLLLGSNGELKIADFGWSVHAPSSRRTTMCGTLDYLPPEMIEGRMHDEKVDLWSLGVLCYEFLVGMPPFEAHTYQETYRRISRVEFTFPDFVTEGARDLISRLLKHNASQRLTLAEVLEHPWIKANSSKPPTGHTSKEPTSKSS
Kind of assay: Aurora-A Screening Assay. The note with it: 33P-γ-ATP incorporation, 10 μM ATP. The class given is biochemical, murine.

In the next assay the target is T5, RET (Homo sapiens, UniProt P07949).
T5 construct: the RET cytoplasmic domain consisting of the last 492 amino acids of the intracellular domain of the RET tyrosine kinase; histidine tag (N); made in house; host or cells: Hi5 insect cells
T5 sequence (P07949 658-1114 limits assumed): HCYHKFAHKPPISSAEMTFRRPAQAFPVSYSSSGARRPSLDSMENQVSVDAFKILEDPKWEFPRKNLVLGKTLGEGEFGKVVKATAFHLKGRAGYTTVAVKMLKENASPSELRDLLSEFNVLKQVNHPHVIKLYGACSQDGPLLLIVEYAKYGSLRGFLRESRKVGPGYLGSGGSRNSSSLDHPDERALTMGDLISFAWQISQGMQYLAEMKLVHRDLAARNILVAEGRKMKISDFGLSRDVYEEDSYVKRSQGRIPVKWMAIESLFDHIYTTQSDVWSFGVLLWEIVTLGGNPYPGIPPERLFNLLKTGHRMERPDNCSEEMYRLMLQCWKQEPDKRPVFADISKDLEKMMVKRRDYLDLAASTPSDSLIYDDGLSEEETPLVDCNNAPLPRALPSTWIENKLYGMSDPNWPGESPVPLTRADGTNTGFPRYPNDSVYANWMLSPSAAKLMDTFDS
Kind of assay: RET Kinase Screening Assay. The note with it: 33P-γ-ATP incorporation, 10 μM ATP. The class given is biochemical.

The IC50 is the point on the concentration scale where inhibition reaches its midpoint. Low readings indicate greater potency, high ones weaker potency.

T1 sequence (P04626 676-1255 limits assumed): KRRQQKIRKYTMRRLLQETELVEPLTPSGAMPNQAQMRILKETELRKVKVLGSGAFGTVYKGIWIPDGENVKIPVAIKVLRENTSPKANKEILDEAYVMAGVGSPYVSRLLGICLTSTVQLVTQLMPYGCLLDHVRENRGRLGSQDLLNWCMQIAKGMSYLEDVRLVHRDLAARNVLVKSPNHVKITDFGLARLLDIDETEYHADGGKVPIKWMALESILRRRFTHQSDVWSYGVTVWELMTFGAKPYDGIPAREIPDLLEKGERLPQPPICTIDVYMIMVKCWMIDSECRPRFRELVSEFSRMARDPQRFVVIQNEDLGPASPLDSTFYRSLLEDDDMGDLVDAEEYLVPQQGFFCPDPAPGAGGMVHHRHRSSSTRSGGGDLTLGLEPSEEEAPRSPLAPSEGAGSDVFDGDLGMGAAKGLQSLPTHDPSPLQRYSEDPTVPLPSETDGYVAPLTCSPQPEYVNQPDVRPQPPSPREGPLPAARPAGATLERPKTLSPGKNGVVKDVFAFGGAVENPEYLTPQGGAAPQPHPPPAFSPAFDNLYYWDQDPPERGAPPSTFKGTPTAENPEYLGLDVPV

Take `CN1CCN(CCc2ccc(Nc3nccc(-c4c[nH]c5ncccc45)n3)cc2)CC1` [Cpd 21, {4-[2-(4-Methyl-piperazin-1-yl)-ethyl]-phenyl}-[4-(1H-pyrrolo[2,3-b]pyridin-3-yl)-pyrimidin-2-yl]-amine]: the IC50 in the assay on A375 malignant melanoma came to 0.0295 µM; against HER2, 0.009 µM; in assay [1], 0.0315 µM; in the assay on HCT-116 colon carcinoma it was 0.0159 µM; at CDK1:Cyclin-B, 0.068 µM; against VEGF-R2, 0.075 µM. Besides, the IC50 at Aurora-A is 0.197 µM.
Consider `CCN(CC)CCc1ccc(Nc2nccc(-c3c[nH]c4ncccc34)n2)cc1` [Cpd 24, [4-(2-Diethylamino-ethyl)-phenyl]-[4-(1H-pyrrolo[2,3-b]pyridin-3-yl)-pyrimidin-2-yl]-amine], for which the IC50 amounted to 0.031 µM in the assay on A375 malignant melanoma; 0.009 µM against HER2; 0.034 µM in assay [1]; 0.018 µM in the assay with HCT-116 colon carcinoma; 0.028 µM against CDK1:Cyclin-B; 0.089 µM on VEGF-R2. In addition, on Aurora-A, it took 0.244 µM to reach half-maximal inhibition (IC50).
Turning to `c1cnc2[nH]cc(-c3ccnc(Nc4ccc(CCN5CCCC5)cc4)n3)c2c1` [Cpd 19, [4-(2-Pyrrolidin-1-yl-ethyl)-phenyl]-[4-(1H-pyrrolo[2,3-b]pyridin-3-yl)-pyrimidin-2-yl]-amine], the IC50 in the assay with A375 malignant melanoma worked out at 0.021 µM; against HER2 it was 0.011 µM; in assay [1], 0.029 µM; with HCT-116 colon carcinoma, 0.013 µM; against CDK1:Cyclin-B, 0.032 µM; against VEGF-R2, 0.065 µM. This molecule displayed an IC50 at Aurora-A of 0.162 µM.
For the molecule `CN(C)CCc1ccc(Nc2nccc(-c3c[nH]c4ncccc34)n2)cc1` [Cpd 23, [4-(2-Dimethylamino-ethyl)-phenyl]-[4-(1H-pyrrolo[2,3-b]pyridin-3-yl)-pyrimidin-2-yl]-amine], the IC50 in the assay on A375 malignant melanoma was 0.024 µM; at HER2, 0.012 µM; in assay [1], 0.03 µM; with HCT-116 colon carcinoma, 0.025 µM; against CDK1:Cyclin-B, 0.039 µM; at VEGF-R2 it was 0.066 µM. Besides, the IC50 against Aurora-A worked out at 0.257 µM.
For the molecule `Cc1cc(CCN2CCCCC2)ccc1Nc1nccc(-c2c[nH]c3ncccc23)n1` [Cpd 50, {4-[2-(Piperidin-1-yl)ethyl]-2-methylphenyl}-[4-(1H-pyrrolo[2,3-b]pyridin-3-yl)-pyrimidin-2-yl]-amine], the IC50 with A375 malignant melanoma was 0.00284 µM; in assay [1] it was 0.00268 µM; with HCT-116 colon carcinoma it was 0.00283 µM; at RET, 3.07 µM; at CDK1:Cyclin-B it was 0.0011 µM; on VEGF-R2, 0.959 µM. In addition, at Aurora-A, the IC50 came out at 0.902 µM.
Turning to `Cc1cc(CCN2CCOCC2)ccc1Nc1nccc(-c2c[nH]c3ncccc23)n1` [Cpd 49, {4-[2-(Morpholin-4-yl)ethyl]-2-methylphenyl}-[4-(1H-pyrrolo[2,3-b]pyridin-3-yl)-pyrimidin-2-yl]-amine], the IC50 worked out at 0.00282 µM in the assay on A375 malignant melanoma; 0.00252 µM in assay [1]; 0.00294 µM with HCT-116 colon carcinoma; 2.28 µM against RET; 0.00196 µM against CDK1:Cyclin-B; 0.75 µM against VEGF-R2. Moreover, the IC50 against Aurora-A was 0.333 µM.
Turning to `CNCCc1ccc(Nc2nccc(-c3c[nH]c4ncccc34)n2)c(Cl)c1` [Cpd 53], the IC50 stood at 0.0913 µM in the assay on A375 malignant melanoma; 0.123 µM in assay [1]; 0.127 µM in the assay with HCT-116 colon carcinoma; 2.36 µM against RET; 0.0441 µM on CDK1:Cyclin-B; 1.31 µM at VEGF-R2. For the same molecule, inhibition against Aurora-A was half-maximal at 0.408 µM (IC50).
In the case of `COc1ccc(Nc2nccc(-c3c[nH]c4ncccc34)n2)cc1` [Cpd 5, (4-Methoxy-phenyl)-[4-(1H-pyrrolo[2,3-b]pyridin-3-yl)-pyrimidin-2-yl]-amine], the IC50 is 0.05 µM with A375 malignant melanoma; 0.059 µM in assay [1]; 0.034 µM with HCT-116 colon carcinoma; 1.14 µM against RET; 0.011 µM on CDK1:Cyclin-B; 0.238 µM on VEGF-R2. Besides, the IC50 on Aurora-A came out at 0.134 µM.
Take `COc1ccccc1Nc1nccc(-c2c[nH]c3ncccc23)n1` [Cpd 7, (2-Methoxy-phenyl)-[4-(1H-pyrrolo[2,3-b]pyridin-3-yl)-pyrimidin-2-yl]-amine]: the IC50 in the assay with A375 malignant melanoma was 0.35 µM; in assay [1], 0.35 µM; with HCT-116 colon carcinoma it was 0.29 µM; against RET it was greater than 10 µM; on CDK1:Cyclin-B, 0.044 µM; against VEGF-R2, 0.82 µM. At Aurora-A, it took 0.497 µM to reach half-maximal inhibition (IC50).
With `CCN(CC)CCc1ccc(Nc2nccc(-c3c[nH]c4ncccc34)n2)c(C)c1` [Cpd 47], the IC50 in the assay on A375 malignant melanoma came out at 0.00288 µM; in assay [1] it was 0.00302 µM; in the assay with HCT-116 colon carcinoma, 0.00292 µM; on RET it was 1.4 µM; against CDK1:Cyclin-B it was 0.0014 µM; against VEGF-R2, 0.882 µM. The molecule also came in with an IC50 against Aurora-A of 0.972 µM.
In the case of `Nc1ccc(Nc2nccc(-c3c[nH]c4ncccc34)n2)cc1` [Cpd 37, (4-Aminophenyl)-[4-(1H-pyrrolo[2,3-b]pyridin-3-yl)-pyrimidin-2-yl]-amine], the concentration for half-maximal inhibition (IC50) stood at 0.185 µM with A375 malignant melanoma; 0.194 µM in assay [1]; 0.0828 µM with HCT-116 colon carcinoma; 1.62 µM against RET; 0.035 µM at CDK1:Cyclin-B; 0.211 µM against VEGF-R2. In addition, 0.386 µM corresponded to half-maximal inhibition against Aurora-A (IC50).
With `CNCCc1ccc(Nc2nccc(-c3c[nH]c4ncccc34)n2)c(C)c1` [Cpd 45], the IC50 is 0.00167 µM in the assay with A375 malignant melanoma; 0.00337 µM in assay [1]; 0.0022 µM in the assay with HCT-116 colon carcinoma; 1.54 µM on RET; 0.00095 µM against CDK1:Cyclin-B; 0.583 µM on VEGF-R2. On Aurora-A, this molecule came in with an IC50 of 0.317 µM.
Take `CCNCCc1ccc(Nc2nccc(-c3c[nH]c4ncccc34)n2)cc1` [Cpd 26, [4-(2-Ethylamino-ethyl)-phenyl]-[4-(1H-pyrrolo[2,3-b]pyridin-3-yl)-pyrimidin-2-yl]-amine]: the IC50 stood at 0.0222 µM in the assay on A375 malignant melanoma; 0.006 µM against HER2; 0.026 µM in assay [1]; 0.0135 µM in the assay with HCT-116 colon carcinoma; 0.014 µM against CDK1:Cyclin-B; 0.094 µM at VEGF-R2. Moreover, the IC50 against Aurora-A is 0.157 µM.
For `COc1cccc(Nc2nccc(-c3c[nH]c4ncccc34)n2)c1` [Cpd 6, (3-Methoxy-phenyl)-[4-(1H-pyrrolo[2,3-b]pyridin-3-yl)-pyrimidin-2-yl]-amine], the IC50 is 0.95 µM in the assay with A375 malignant melanoma; 1.46 µM in assay [1]; 0.72 µM in the assay on HCT-116 colon carcinoma; roughly 1 µM against RET; 0.119 µM against CDK1:Cyclin-B; 0.14 µM against VEGF-R2. Besides, at Aurora-A, half-maximal inhibition (IC50) required 0.1 µM.
`Clc1ccc(Nc2nccc(-c3c[nH]c4ncccc34)n2)cc1` [Cpd 11, (4-Chloro-phenyl)-[4-(1-H-pyrrolo[2,3-b]pyridin-3-yl)-pyrimidin-2-yl]-amine]: the IC50 in the assay on A375 malignant melanoma was 0.97 µM; in assay [1], 1.01 µM; in the assay with HCT-116 colon carcinoma, 0.56 µM; at RET, greater than 10 µM; on CDK1:Cyclin-B, 0.0696 µM; at VEGF-R2, roughly 1 µM. For the same molecule, the IC50 at Aurora-A is roughly 1 µM.
Consider `OCCc1ccc(Nc2nccc(-c3c[nH]c4ncccc34)n2)c(Cl)c1` [Cpd 52], for which the IC50 in the assay on A375 malignant melanoma stood at 0.134 µM; in assay [1], 0.162 µM; in the assay with HCT-116 colon carcinoma, 0.121 µM; against RET it was 0.54 µM; on CDK1:Cyclin-B, 0.0087 µM; at VEGF-R2, 0.322 µM. Moreover, the midpoint of inhibition against Aurora-A, the IC50, lay at 0.0757 µM.
